Broadly, the inhibition is how much of the control response was suppressed. Broadly, the IC50 is the point on the concentration scale where inhibition reaches its midpoint. The term GI50 denotes the concentration that inhibits growth by half.

This note sets out measurements from article PMC7901646, “Pyrrolo[2′,3′:3,4]cyclohepta[1,2-d][1,2]oxazoles, a New Class of Antimitotic Agents Active against Multiple Malignant Cell Types” (Journal of Medicinal Chemistry, 2020).

For one experiment, the target named is tubulin colchicine site (Bos taurus, UniProt P81947+Q6B856). Description: Inhibition of [3H]colchicine binding to tubulin. The note with it: read-out: inhibition of colchicine binding % inhibition ± SD.
Sequence of tubulin colchicine site (Q6B856 whole entry): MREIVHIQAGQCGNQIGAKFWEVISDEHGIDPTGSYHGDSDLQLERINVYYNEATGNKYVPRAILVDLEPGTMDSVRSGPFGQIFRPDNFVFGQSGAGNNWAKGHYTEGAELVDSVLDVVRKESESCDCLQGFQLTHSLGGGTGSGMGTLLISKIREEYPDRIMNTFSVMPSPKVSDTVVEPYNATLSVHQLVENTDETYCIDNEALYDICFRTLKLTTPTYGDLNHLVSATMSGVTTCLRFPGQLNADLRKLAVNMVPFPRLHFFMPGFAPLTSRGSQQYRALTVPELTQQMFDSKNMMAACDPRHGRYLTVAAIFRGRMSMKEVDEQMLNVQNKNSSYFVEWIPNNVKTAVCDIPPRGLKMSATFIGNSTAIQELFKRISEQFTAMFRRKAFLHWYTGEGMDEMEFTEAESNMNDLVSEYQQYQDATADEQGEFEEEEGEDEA
Sequence of tubulin colchicine site (P81947 whole entry): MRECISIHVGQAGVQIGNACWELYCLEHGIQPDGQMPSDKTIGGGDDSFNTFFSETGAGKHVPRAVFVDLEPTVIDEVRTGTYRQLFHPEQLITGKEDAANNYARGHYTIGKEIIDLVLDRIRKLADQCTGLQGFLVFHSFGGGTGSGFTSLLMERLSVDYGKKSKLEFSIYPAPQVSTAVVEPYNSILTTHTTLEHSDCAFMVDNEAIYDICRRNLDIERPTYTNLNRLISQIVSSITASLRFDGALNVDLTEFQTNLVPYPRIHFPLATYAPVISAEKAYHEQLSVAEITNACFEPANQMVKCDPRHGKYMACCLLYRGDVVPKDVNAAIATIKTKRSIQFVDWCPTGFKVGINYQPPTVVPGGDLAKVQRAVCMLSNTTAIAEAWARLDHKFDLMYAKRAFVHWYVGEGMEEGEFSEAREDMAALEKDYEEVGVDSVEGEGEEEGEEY
For another experiment, the target named is bovine brain tubulin (Bos taurus, UniProt P81947+Q6B856). Nature of the experiment: Inhibition of tubulin assembly (turbidimetry). Format: biochemical. The note with it: 9 μM (0.9 mg/mL) tubulin, 20 min at 30 °C; read-out: inhibition of tubulin assembly IC50 ± SD.
Sequence of bovine brain tubulin (Q6B856 whole entry): as the sequence (Q6B856 whole entry) above
Sequence of bovine brain tubulin (P81947 whole entry): as the sequence (P81947 whole entry) above
A further experiment relates to HeLa cells. Description: Flow cytometric cell cycle distribution. The note with it: 24 h. The class given is cell-based. Here is the method: To evaluate the effects of compounds 63, 66, and 75 on cell cycle progression, we first treated HeLa cells for 24 h.The cells were then labeled with propidium iodide (PI) and analyzed by flow cytometry. As shown in Figure 5 (panel B), compound 66 induced arrest of the cell cycle in the G2/M phase.
5 ×10^5 HeLa cells were treated with different concentrations of the test compounds for 24 h. After the incubation period, the cells were collected, centrifuged, and fixed with ice-cold ethanol (70%). The cells were treated with lysis buffer containing RNase A and 0.1% Triton X-100 and stained with PI. Samples were analyzed on a Cytomic FC500 flow cytometer (Beckman Coulter). DNA histograms were analyzed using MultiCycle for Windows (Phoenix Flow Systems).
For orientation: In flow cytometry, cells or beads pass a laser one at a time.

A further experiment deals with T-47D. Description: NCI-60 screen. The class given is cell-based. The note with it: Homo sapiens, T47D; Breast Cancer. The essentials: (§1)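 Read-out is antitumor activity on each cell line of the NCI-60 panel after exposure to compound at 10^–5 M. The panel covers nine human cancer types.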
For a further experiment, the system named is MALME-3M. Description: NCI-60 screen. Format: cell-based. Particulars: Homo sapiens, Melanoma. The essentials: as §1
Another experiment relates to HS 578T. Description: NCI-60 screen. Format: cell-based. The note with it: Homo sapiens, Breast Cancer. The essentials:
as §1

The subject of a further experiment is HOP-62. Description: NCI-60 screen. The class given is cell-based. Particulars: Homo sapiens, Non-Small-Cell Lung Cancer. The essentials: as §1
The test system of the next experiment is SN12C. Nature of the experiment: NCI-60 screen. Format: cell-based. The note with it: Homo sapiens, Renal Cancer. The essentials: as §1
The test system of another experiment is SK-MEL-2. Description: NCI-60 screen. The class given is cell-based. Particulars: Homo sapiens, Melanoma. Put shortly: as §1
A further experiment deals with U251. Nature of the experiment: NCI-60 screen. Format: cell-based. Particulars: Homo sapiens, U-251; CNS Cancer. Put shortly: as §1
A further experiment concerns OVCAR-8. Nature of the experiment: NCI-60 screen. The class given is cell-based. Particulars: Homo sapiens, Ovarian Cancer. Put shortly:
as §1

For experiment [1], the system named is human peripheral blood lymphocytes stimulated with PHA. Description: Cytotoxicity in PHA-stimulated PBLs (MTT). The class given is cell-based. The note with it: Lymphocyte, 72 h, mean ± SEM, three experiments, read-out: GI50 PBLPHA. As for the experimental part: PBLs were obtained from human peripheral blood (leucocyte rich plasma-buffy coats) from healthy volunteers using the Lymphoprep (Fresenius KABI Norge AS) gradient density centrifugation.
After extensive washing, cells were resuspended (1.0 × 10^6 cells/mL) in RPMI-1640 with 10% fetal bovine serum and incubated overnight. For cytotoxicity evaluations in proliferating PBL cultures, nonadherent cells were resuspended at 5 × 10^5 cells/mL in growth medium, containing 2.5 μg/mL PHA (Irvine Scientific). Different concentrations of the test compounds were added, and viability was determined 72 h later by the MTT test. For cytotoxicity evaluations in resting PBL cultures, nonadherent cells were resuspended (5 × 10^5 cells/mL) and treated for 72 h with the test compounds.

The subject of a further experiment is VL51 (MZL). Nature of the experiment: MTT cell proliferation, lymphoma. The class given is cell-based. The note with it: Homo sapiens, 72 h. Put shortly: (§2)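 Lymphoma lines in RPMI-1640 with 10% FBS seeded at 1 × 10^5 cells/mL and treated with 1 μM, or in triplicate with serial dilutions over 40–10 000 nM, for 72 h at 37 °C, 5% CO2. Viability by MTT (4 h), SDS lysis, absorbance at 570 nm with medium-only blanks.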

The next experiment relates to SU-DHL-10 (GCB DLBCL). Description: MTT cell proliferation, lymphoma. The note with it: Homo sapiens, SU-DHL10, 72 h. Format: cell-based. The essentials: as §2
The test system of another experiment is MINO (MCL). Description: MTT cell proliferation, lymphoma. Format: cell-based. The note with it: Homo sapiens, 72 h. Put shortly: as §2
The next experiment relates to HBL1 (ABC DLBCL). Description: MTT cell proliferation, lymphoma. The class given is cell-based. Particulars: Homo sapiens, 72 h. The essentials:
as §2

The test system of experiment [2] is VL51 idelalisib-resistant. Description: MTT cell proliferation, lymphoma. The class given is cell-based. The note with it: Homo sapiens, 72 h, of untreated cells, read-out: Proliferating cells (%). The essentials: as §2
In a further experiment the test system is VL51 ibrutinib-resistant. Description: MTT cell proliferation, lymphoma. The class given is cell-based. The note with it: Homo sapiens, 72 h, of untreated cells, read-out: Proliferating cells (%). The essentials: as §2
Setting [3] is: 1 μM, of untreated cells, read-out: Proliferating cells (%).

Procedure for tubulin colchicine site: Reaction mixtures in the assembly assay contained 9 μM (0.9 mg/mL) tubulin in the assembly assay, and in the colchicine assay they contained 0.5 μM tubulin, 5.0 μM [^3H]colchicine, and 5.0 μM inhibitor.
Analysis of effects on tubulin polymerization was performed by turbidimetry at 350 nm in recording spectrophotometers equipped with electronic temperature controllers as described in detail elsewhere.[71] […] The binding of [^3H]colchicine to tubulin was perfomed as described in detail previously[72] except that the tubulin concentration was reduced from 0.1 mg/mL to 0.05 mg/mL and only one, instead of two, DEAE-cellulose filter was used for each reaction mixture.

With `CCOC(=O)c1c(Cl)c2c(n1Cc1cc(OC)cc(OC)c1)-c1oncc1CCC2` [Compound 75, Ethyl 7-Chloro-9-(3,5-dimethoxybenzyl)-4,5,6,9-tetrahydropyrrolo[2′,3′:3,4]cyclohepta[1,2-d][1,2]oxazole-8-carboxylate], the inhibition at 5 µM at tubulin colchicine site worked out at 42 ± 5%. In addition, the 50% inhibitory concentration (IC50) at bovine brain tubulin was determined as 1900 ± 100 nM; in the experiment on VL51 (MZL) (MTT), 800 nM; in the experiment on SU-DHL-10 (GCB DLBCL) (MTT), 900 nM; in the experiment with MINO (MCL) (MTT), 900 nM; in the experiment with HBL1 (ABC DLBCL) (MTT), 900 nM. In addition, in the experiment on HeLa cells, the “concentration at which G2/M arrest first occurred” value came to 0.25 µM. Also, the GI50 with T-47D turned out to be 440 nM; in the experiment with MALME-3M, 200 nM; in the experiment on HS 578T, 450 nM; with HOP-62, 290 nM; in the experiment on SN12C, 830 nM; in the experiment with SK-MEL-2 it was 220 nM. Also, the concentration for 50% growth inhibition (GI50) in the experiment on U251 is 310 nM; in the experiment on OVCAR-8 it was 410 nM; in [1] it was above 100000 nM. In addition, the activity at 1 µM with VL51 (MZL) (setting [3]) is 38.1%; in the experiment with SU-DHL-10 (GCB DLBCL) (setting [3]), 11.5%; with MINO (MCL) (setting [3]), 9.5%; in the experiment with HBL1 (ABC DLBCL) (setting [3]) it was 20.7%; in experiment [2] it was 40.2%; with VL51 ibrutinib-resistant it was 40.8%.
